Data on 20 compounds can be found in patent publication US9932341B2, “Use of pyrazolopyrimidine derivatives for the treatment of PI3K-delta related disorders” (Incyte Corporation, priority 2013, dated 2018).

The structures appear in SMILES notation.

PI3Kδ (p110δ/p85α), sequence (O00329 whole entry): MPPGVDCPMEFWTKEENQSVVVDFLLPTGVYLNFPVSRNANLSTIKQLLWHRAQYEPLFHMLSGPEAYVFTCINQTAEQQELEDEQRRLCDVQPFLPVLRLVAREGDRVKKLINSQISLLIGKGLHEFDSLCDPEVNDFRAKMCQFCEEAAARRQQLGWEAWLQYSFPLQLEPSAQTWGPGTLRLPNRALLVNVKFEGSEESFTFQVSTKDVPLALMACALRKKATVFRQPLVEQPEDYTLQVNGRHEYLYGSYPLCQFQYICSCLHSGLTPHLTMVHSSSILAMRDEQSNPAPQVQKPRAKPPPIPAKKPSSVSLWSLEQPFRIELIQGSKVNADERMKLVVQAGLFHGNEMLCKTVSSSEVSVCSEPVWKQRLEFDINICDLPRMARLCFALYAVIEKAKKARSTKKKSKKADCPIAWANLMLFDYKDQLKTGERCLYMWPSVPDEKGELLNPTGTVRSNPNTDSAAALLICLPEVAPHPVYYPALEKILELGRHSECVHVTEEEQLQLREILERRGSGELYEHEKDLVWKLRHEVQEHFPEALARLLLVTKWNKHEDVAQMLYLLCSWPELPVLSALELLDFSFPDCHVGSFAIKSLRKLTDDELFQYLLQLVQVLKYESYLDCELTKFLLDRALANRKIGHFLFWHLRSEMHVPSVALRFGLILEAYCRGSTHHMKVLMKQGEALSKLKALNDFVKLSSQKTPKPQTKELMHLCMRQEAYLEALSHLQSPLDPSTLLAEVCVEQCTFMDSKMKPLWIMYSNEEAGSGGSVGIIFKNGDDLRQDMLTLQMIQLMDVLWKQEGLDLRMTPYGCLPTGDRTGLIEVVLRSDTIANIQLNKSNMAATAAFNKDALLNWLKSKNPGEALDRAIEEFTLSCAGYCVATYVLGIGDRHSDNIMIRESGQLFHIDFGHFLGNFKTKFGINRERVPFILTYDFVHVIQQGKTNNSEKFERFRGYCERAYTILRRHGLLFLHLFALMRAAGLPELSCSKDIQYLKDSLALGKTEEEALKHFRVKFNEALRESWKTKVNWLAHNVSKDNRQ
PI3Kδ (p110δ/p85α), sequence (P27986 whole entry partner): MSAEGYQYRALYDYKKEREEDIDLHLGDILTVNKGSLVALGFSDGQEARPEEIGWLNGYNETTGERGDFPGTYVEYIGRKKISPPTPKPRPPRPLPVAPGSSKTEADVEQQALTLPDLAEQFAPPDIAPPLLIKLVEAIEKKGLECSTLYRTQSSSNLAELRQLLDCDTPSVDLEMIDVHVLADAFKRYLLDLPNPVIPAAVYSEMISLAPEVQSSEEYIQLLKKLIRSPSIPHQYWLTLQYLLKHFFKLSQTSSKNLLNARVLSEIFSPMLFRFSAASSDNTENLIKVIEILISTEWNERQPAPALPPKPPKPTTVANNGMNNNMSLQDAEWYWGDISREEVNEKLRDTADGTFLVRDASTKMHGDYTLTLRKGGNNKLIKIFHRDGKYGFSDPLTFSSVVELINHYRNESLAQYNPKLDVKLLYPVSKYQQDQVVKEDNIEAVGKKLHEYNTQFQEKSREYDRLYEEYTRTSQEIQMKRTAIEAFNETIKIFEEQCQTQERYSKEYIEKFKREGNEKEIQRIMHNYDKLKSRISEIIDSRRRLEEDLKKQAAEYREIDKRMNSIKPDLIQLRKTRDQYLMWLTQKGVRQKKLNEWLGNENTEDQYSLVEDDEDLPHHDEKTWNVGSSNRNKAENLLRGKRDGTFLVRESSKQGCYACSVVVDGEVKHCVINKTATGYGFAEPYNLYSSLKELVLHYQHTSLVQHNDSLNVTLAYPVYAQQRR

The assay addresses PI3Kδ (p110δ/p85α) (Homo sapiens (Human), UniProt O00329). The assay is described as follows: PI3Kδ Scintillation Proximity Assay (Example A3). In kind it is biochemical. The note with it: 20 μM ATP, 20 μM PIP2, 4 nM PI3Kδ, read-out: PI3Kδ SPA IC50. As for the experimental part:
[γ-^33P]ATP (10 mCi/mL) was purchased from PerkinElmer (Waltham, Mass.). […] PI3Kδ (p110δ/p85α) was purchased from Millipore (Bedford, Mass.). ATP, MgCl2, DTT, EDTA, MOPS and CHAPS were purchased from Sigma-Aldrich (St. Louis, Mo.). Wheat Germ Agglutinin (WGA) YSi SPA Scintillation Beads was purchased from GE healthcare life sciences (Piscataway, N.J.).
The kinase reaction was conducted in polystyrene 384-well matrix white plate from Thermo Fisher Scientific in a final volume of 25 μL. Inhibitors were first diluted serially in DMSO and added to the plate wells before the addition of other reaction components. The final concentration of DMSO in the assay was 0.5%. The PI3K assays were carried out at room temperature in 20 mM MOPS, pH 6.7, 10 mM MgCl2, 5 mM DTT and CHAPS 0.03%. Reactions were initiated by the addition of ATP, the final reaction mixture consisted of 20 μM PIP2, 20 μM ATP, 0.2 μCi [γ-^33P] ATP, 4 nM PI3Kδ. […] 25 mM EDTA, 400 μM ATP. The final concentration of SPA beads was 1.0 mg/mL. After the plate sealing, plates were shaken overnight at room temperature and centrifuged at 1800 rpm for 10 minutes, the radioactivity of the product was determined by scintillation counting on Topcount (PerkinElmer). IC50 determination was performed by fitting the curve of percent control activity versus the log of the inhibitor concentration using the GraphPad Prism 3.0 software.
In general terms: In a scintillation proximity assay essentially only radioactivity close to the scintillant gives light.
By IC50 is commonly meant the concentration that gives 50% inhibition. Regarding `CCOc1c(C(C)n2nc(C)c3c(N)ncnc32)cc(Cl)c(C#N)c1C1CN(C(C)(C)C(N)=O)C1` (single isomer, unassigned) [Example 239, 2-{3-(3-[1-(4-Amino-3-methyl-1H-pyrazolo[3,4-d]pyrimidin-1-yl)ethyl]-5-chloro-6-cyano-2-ethoxyphenyl}azetidin-1-yl)-2-methylpropan amide], the IC50 was less than 0.01 µM.

In the case of `CCOc1c(C(C)n2nc(C)c3c(N)ncnc32)cc(Cl)c(C#N)c1C1CN(C(=O)C(C)(C)O)C1` (single isomer, unassigned) [Example 247, 4-[1-(4-Amino-3-methyl-1H-pyrazolo[3,4-d]pyrimidin-1-yl)ethyl]-6-chloro-3-ethoxy-2-[1-(2-hydroxy-2-methylpropanoyl)azetidin-3-yl]benzonitrile], the IC50 is less than 0.01 µM.

As to `COc1c(C(C)n2nc(C)c3c(N)ncnc32)cc(Cl)c(C#N)c1C1CNC1` (single isomer, unassigned) [Example 261, 4-[1-(4-Amino-3-methyl-1H-pyrazolo[3,4-d]pyrimidin-1-yl)ethyl]-2-azetidin-3-yl-6-chloro-3-methoxybenzonitrile], the IC50 was less than 0.01 µM.

Consider `COc1c(C(C)n2nc(C)c3c(N)ncnc32)cc(Cl)c(C#N)c1C1CN(C)C1` (single isomer, unassigned) [Example 262, 4-[1-(4-Amino-3-methyl-1H-pyrazolo[3,4-d]pyrimidin-1-yl)ethyl]-6-chloro-3-methoxy-2-(1-methylazetidin-3-yl)benzonitrile], for which the IC50 is less than 0.01 µM.

Regarding `COc1c(C(C)n2nc(C)c3c(N)ncnc32)cc(Cl)c(C#N)c1C1CN(CCO)C1` (single isomer, unassigned) [Example 268, 4-[1-(4-Amino-3-methyl-1H-pyrazolo[3,4-d]pyrimidin-1-yl)ethyl]-6-chloro-2-[1-(2-hydroxyethyl)azetidin-3-yl]-3-methoxybenzo nitrile], the IC50 was less than 0.01 µM.

With `COc1c(C(C)n2nc(C)c3c(N)ncnc32)cc(Cl)c(C#N)c1C1CN(C(C)=O)C1` (single isomer, unassigned) [Example 281, 2-(1-Acetylazetidin-3-yl)-4-[1-(4-amino-3-methyl-1H-pyrazolo[3,4-d]pyrimidin-1-yl)ethyl]-6-chloro-3-methoxybenzonitrile], the IC50 was less than 0.01 µM.

For `COc1c(C(C)n2nc(C)c3c(N)ncnc32)cc(Cl)c(C#N)c1C1CN(S(C)(=O)=O)C1` (single isomer, unassigned) [Example 285, 4-[1-(4-Amino-3-methyl-1H-pyrazolo[3,4-d]pyrimidin-1-yl)ethyl]-6-chloro-3-methoxy-2-[1-(methylsulfonyl)azetidin-3-yl]benzonitrile], the IC50 was less than 0.01 µM.

For the compound `COC(=O)N1CC(c2c(C#N)c(Cl)cc(C(C)n3nc(C)c4c(N)ncnc43)c2OC)C1` (single isomer, unassigned) [Example 289, Methyl 3-{3-[1-(4-amino-3-methyl-1H-pyrazolo[3,4-d]pyrimidin-1-yl)ethyl]-5-chloro-6-cyano-2-methoxyphenyl}azetidine-1-carboxylate], the IC50 was less than 0.01 µM.

As to `COc1c(C(C)n2nc(C)c3c(N)ncnc32)cc(Cl)c(C#N)c1C1CN(C(=O)NC(C)(C)C)C1` (single isomer, unassigned) [Example 292, 3-{3-[1-(4-Amino-3-methyl-1H-pyrazolo[3,4-d]pyrimidin-1-yl)ethyl]-5-chloro-6-cyano-2-methoxyphenyl}-N-(tert-butyl)azetidine-1-carboxamide], the half-inhibitory concentration (IC50) was less than 0.01 µM.

For `COc1c(C(C)n2nc(C)c3c(N)ncnc32)cc(Cl)c(C#N)c1C1CN(C(N)=O)C1` (single isomer, unassigned) [Example 293, 3-{3-[1-(4-Amino-3-methyl-1H-pyrazolo[3,4-d]pyrimidin-1-yl)ethyl]-5-chloro-6-cyano-2-methoxyphenyl}azetidine-1-carboxamide], the IC50 was less than 0.01 µM.

For the compound `COc1c(C(C)n2nc(C)c3c(N)ncnc32)cc(Cl)c(C#N)c1C1CN(C(=O)N(C)C)C1` (single isomer, unassigned) [Example 296, 3-{3-[1-(4-Amino-3-methyl-1H-pyrazolo[3,4-d]pyrimidin-1-yl)ethyl]-5-chloro-6-cyano-2-methoxyphenyl}-N,N-dimethylazetidine-1-carboxamide], the IC50 was less than 0.01 µM.

For `CCOc1c(C(C)n2cc(C)c3c(N)ncnc32)cc(Cl)c(C#N)c1C1CN(C(C)C)C1` (single isomer, unassigned) [Example 307, 4-[1-(4-Amino-5-methyl-7H-pyrrolo[2,3-d]pyrimidin-7-yl)ethyl]-6-chloro-3-ethoxy-2-(1-isopropylazetidin-3-yl)benzonitrile], the IC50 is less than 0.01 µM.

Turning to `COc1c(C(C)n2nc(C)c3c(N)ncnc32)cc(C)c(C#N)c1C1CN(C[C@H](C)O)C1` (single isomer, unassigned) [Example 315], the IC50 was less than 0.01 µM.

With `CCOc1c(C(C)n2nc(C)c3c(N)ncnc32)cc(Cl)c(F)c1C1CNC(=O)C1` (single isomer, unassigned) [Example 346, 4-{3-[1-(4-amino-3-methyl-1H-pyrazolo[3,4-d]pyrimidin-1-yl)ethyl]-5-chloro-2-ethoxy-6-fluorophenyl}pyrrolidin-2-one], the IC50 is less than 0.01 µM.

Take `CCOc1c(C(C)n2nc(C)c3c(N)ncnc32)cc(Cl)c(F)c1C1COC(=O)N1` (single isomer, unassigned) [Example 353, 4-{3-[1-(4-amino-3-methyl-1H-pyrazolo[3,4-d]pyrimidin-1-yl)ethyl]-5-chloro-2-ethoxy-6-fluorophenyl}-1,3-oxazolidin-2-one]: the IC50 is more than 0.5 µM.

`CCOc1c(C(C)n2nc(C)c3c(N)ncnc32)cc(Cl)c(F)c1C1COC(=O)N1` (single isomer, unassigned) [Example 354, 4-{3-[1-(4-amino-3-methyl-1H-pyrazolo[3,4-d]pyrimidin-1-yl)ethyl]-5-chloro-2-ethoxy-6-fluorophenyl}-1,3-oxazolidin-2-one]: the IC50 was less than 0.01 µM.

Regarding `CCOc1c(C(C)n2nc(C)c3c(N)ncnc32)cc(Cl)c(F)c1C1CNC(=O)O1` (single isomer, unassigned) [Example 355, 5-{3-[1-(4-amino-3-methyl-1H-pyrazolo[3,4-d]pyrimidin-1-yl)ethyl]-5-chloro-2-ethoxy-6-fluorophenyl}-1,3-oxazolidin-2-one], the IC50 was in the range of 0.05 to 0.2 µM.

For `CCOc1c(C(C)n2nc(C)c3c(N)ncnc32)cc(Cl)c(F)c1C1CNC(=O)O1` (single isomer, unassigned) [Example 356, 5-{3-[1-(4-amino-3-methyl-1H-pyrazolo[3,4-d]pyrimidin-1-yl)ethyl]-5-chloro-2-ethoxy-6-fluorophenyl}-1,3-oxazolidin-2-one], the IC50 was in the range of 0.05 to 0.2 µM.

`COc1c(C(C)n2nc(C)c3c(N)ncnc32)cc(Cl)c(C)c1C1CN(CC(C)O)C1` (stereo in doubt) [Example 102, (2S)-1-(3-{3-[1-(4-Amino-3-methyl-1H-pyrazolo[3,4-d]pyrimidin-1-yl)ethyl]-5-chloro-2-methoxy-6-methylphenyl}azetidin-1-yl)propan-2-ol]: the IC50 was less than 0.01 µM.

For the compound `COc1c(C(C)n2nc(C)c3c(N)ncnc32)cc(Cl)c(F)c1C1CN(C[C@H](C)O)C1` (stereo partly drawn) [68 (1st peak), (2S)-1-(3-{3-[1-(4-Amino-3-methyl-1H-pyrazolo[3,4-d]pyrimidin-1-yl)ethyl]-5-chloro-6-fluoro-2-methoxyphenyl}azetidin-1-yl)propan-2-ol], the IC50 is less than 0.01 µM.
